Results from ChEMBL document CHEMBL5321219, “Selective degradation of cellular BRD3 and BRD4-L promoted by PROTAC molecules in six cancer cell lines” (Eur J Med Chem, 2023).
The source made the active and inactive calls. The calls are words filed in the database; no cut-off is given here.

Tests used:
[1] = test system: MM1.S; assay: Induction of cell cycle arrest in human MM1.S cells assessed as accumulation of cells at S phase at 3 nM incubated for 24 hrs by flow cytometry analysis (reference value: 22.37%); format: functional
[2] = target: T1, Protein cereblon/Bromodomain-containing protein 3 (Homo sapiens) (UniProt Q15059+Q96SW2); assay: (§1) PROTAC activity at CRBN/BRD3 in human MM1.S cells assessed as induction of protein degradation at 30 nM pretreated with (6R)-N-(4-chlorophenyl)-1-methyl-8-(1-methyl-1H-pyrazol-4-yl)-5,6-dihydro-4H-benzo[f][1,2,4]triazolo[4,3-a]azepin-6-amine for 2 hrs followed by compound addition and measured after 4 hrs by Western blot analysis; format: cell-based
T1 sequence (Q15059 2-726 limits assumed): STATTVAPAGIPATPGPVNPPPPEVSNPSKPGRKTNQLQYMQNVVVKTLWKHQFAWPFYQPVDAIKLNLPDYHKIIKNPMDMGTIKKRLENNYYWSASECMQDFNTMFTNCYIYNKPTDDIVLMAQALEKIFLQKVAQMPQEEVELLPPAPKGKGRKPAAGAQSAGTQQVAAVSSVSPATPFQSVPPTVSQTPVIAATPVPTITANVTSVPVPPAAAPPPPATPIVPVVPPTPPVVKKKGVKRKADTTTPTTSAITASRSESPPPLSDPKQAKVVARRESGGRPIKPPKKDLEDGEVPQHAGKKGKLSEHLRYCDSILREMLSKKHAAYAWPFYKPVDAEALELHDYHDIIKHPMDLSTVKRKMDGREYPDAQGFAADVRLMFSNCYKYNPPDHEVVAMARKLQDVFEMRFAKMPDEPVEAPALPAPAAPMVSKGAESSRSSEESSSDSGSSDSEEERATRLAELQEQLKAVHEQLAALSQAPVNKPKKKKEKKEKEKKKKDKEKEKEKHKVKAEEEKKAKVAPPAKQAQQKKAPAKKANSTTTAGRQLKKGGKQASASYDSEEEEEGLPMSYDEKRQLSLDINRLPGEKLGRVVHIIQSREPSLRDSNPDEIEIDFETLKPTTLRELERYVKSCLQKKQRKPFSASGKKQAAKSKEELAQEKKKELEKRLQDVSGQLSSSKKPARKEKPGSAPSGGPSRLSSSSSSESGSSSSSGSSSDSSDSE
T1 sequence (Q96SW2 whole entry partner): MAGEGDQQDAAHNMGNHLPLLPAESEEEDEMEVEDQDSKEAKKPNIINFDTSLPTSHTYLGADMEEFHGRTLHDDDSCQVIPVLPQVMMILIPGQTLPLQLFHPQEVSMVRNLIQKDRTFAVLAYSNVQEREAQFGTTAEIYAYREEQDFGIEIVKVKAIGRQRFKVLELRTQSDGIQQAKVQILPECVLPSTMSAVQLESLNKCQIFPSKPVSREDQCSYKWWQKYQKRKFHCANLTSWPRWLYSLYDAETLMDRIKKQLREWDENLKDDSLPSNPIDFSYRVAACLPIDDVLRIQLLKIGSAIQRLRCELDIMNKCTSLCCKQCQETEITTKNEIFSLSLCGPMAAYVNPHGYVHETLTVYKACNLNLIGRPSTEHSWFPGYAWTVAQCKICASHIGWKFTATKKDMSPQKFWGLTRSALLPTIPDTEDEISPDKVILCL

[3] = test system: MM1.S; assay: Antiproliferative activity against human MM1.S cells assessed as cell growth inhibition measured after 4 days by CellTitre-Glo assay; format: functional, cell-based; conditions: 96 h
[4] = target: T2, Protein cereblon/Bromodomain-containing protein 4 (Homo sapiens) (UniProt O60885+Q96SW2); assay: PROTAC activity at CRBN/BRD4-L in human MM1.S cells assessed as induction of protein degradation at 30 nM pretreated with 0.2 to 10 uM MG132 for 2 hrs followed by compound addition and measured after 4 hrs by Western blot analysis; format: cell-based
T2 sequence (Q96SW2 whole entry, looked up, other chains not shown): as the sequence (Q96SW2 whole entry partner) above

[5] = target: T3, Protein cereblon/Bromodomain-containing protein 2 (Homo sapiens) (UniProt P25440+Q96SW2); assay: PROTAC activity at CRBN/BRD2 in human HepG2 cells assessed as induction of protein degradation at 10 to 3000 nM measured after 24 hrs by Western blot analysis; format: cell-based; conditions: dose 10-3000 nM
T3 sequence (P25440 whole entry, looked up): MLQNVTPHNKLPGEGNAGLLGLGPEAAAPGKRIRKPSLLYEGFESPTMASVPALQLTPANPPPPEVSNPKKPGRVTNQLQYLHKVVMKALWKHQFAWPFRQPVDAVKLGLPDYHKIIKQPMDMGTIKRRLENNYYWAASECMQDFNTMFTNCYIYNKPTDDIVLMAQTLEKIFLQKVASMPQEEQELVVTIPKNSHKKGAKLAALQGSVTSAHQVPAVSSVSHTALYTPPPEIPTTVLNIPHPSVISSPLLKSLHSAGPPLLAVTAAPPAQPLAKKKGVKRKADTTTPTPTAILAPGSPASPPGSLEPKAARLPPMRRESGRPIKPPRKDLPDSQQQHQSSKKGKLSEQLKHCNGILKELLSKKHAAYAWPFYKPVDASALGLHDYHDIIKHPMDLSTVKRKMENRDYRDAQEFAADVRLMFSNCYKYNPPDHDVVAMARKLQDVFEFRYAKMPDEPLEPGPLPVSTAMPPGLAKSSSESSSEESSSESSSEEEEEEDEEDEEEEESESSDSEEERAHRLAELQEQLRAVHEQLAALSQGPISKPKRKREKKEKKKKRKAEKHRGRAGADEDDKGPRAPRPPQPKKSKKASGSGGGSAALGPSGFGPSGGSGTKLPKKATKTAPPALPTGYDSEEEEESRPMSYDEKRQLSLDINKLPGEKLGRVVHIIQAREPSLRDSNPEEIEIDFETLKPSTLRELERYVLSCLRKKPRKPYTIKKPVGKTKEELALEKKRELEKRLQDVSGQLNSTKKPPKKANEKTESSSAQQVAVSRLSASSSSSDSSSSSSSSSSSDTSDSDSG
T3 sequence (Q96SW2 whole entry, looked up): as the sequence (Q96SW2 whole entry partner) above

[6] = target: T1, Protein cereblon/Bromodomain-containing protein 3 (Homo sapiens); assay: PROTAC activity at CRBN/BRD3 in human MM1.S cells assessed as induction of protein degradation measured after 24 hrs by Western blot analysis; format: cell-based
[7] = target: T2, Protein cereblon/Bromodomain-containing protein 4 (Homo sapiens); assay: PROTAC activity at CRBN/BRD4-S in human HepG2 cells assessed as induction of protein degradation at 10 to 3000 nM measured after 24 hrs by Western blot analysis; format: cell-based; conditions: dose 10-3000 nM
[8] = test system: MM1.S; assay: Induction of cell cycle arrest in human MM1.S cells assessed as accumulation of cells at G1 phase at 1 nM incubated for 24 hrs by flow cytometry analysis (reference value: 56.32%); format: functional
[9] = test system: MM1.S; assay: Induction of cell cycle arrest in human MM1.S cells assessed as accumulation of cells at G2 phase at 300 nM incubated for 24 hrs by flow cytometry analysis (reference value: 14.68%); format: functional
[10] = target: T2, Protein cereblon/Bromodomain-containing protein 4 (Homo sapiens); assay: as §1, with “CRBN/BRD4-L” for “CRBN/BRD3”; format: cell-based
[11] = target: T1, Protein cereblon/Bromodomain-containing protein 3 (Homo sapiens); assay: PROTAC activity at CRBN/BRD3 in human MM1.S cells assessed as induction of protein degradation at 30 nM measured after 3 to 6 hrs by Western blot analysis; format: cell-based; conditions: time 3-6 hrs
[12] = target: T2, Protein cereblon/Bromodomain-containing protein 4 (Homo sapiens); assay: PROTAC activity at CRBN/BRD4-L in human HeLa cells assessed as induction of protein degradation measured after 24 hrs by Western blot analysis; format: cell-based; conditions: dose 1-300 nM
[13] = test system: HeLa; assay: Antiproliferative activity against human HeLa cells assessed as cell growth inhibition measured after 4 days by CCK-8 assay; format: functional, cell-based; conditions: 96 h
[14] = target: Bromodomain-containing protein 3 (Homo sapiens, UniProt Q15059); assay: Binding affinity to recombinant human BRD3 BD2 (306 to 417 residues) assessed as inhibition constant by fluorescence polarization binding assay
Bromodomain-containing protein 3, sequence (Q15059 whole entry, the tested form may be a part): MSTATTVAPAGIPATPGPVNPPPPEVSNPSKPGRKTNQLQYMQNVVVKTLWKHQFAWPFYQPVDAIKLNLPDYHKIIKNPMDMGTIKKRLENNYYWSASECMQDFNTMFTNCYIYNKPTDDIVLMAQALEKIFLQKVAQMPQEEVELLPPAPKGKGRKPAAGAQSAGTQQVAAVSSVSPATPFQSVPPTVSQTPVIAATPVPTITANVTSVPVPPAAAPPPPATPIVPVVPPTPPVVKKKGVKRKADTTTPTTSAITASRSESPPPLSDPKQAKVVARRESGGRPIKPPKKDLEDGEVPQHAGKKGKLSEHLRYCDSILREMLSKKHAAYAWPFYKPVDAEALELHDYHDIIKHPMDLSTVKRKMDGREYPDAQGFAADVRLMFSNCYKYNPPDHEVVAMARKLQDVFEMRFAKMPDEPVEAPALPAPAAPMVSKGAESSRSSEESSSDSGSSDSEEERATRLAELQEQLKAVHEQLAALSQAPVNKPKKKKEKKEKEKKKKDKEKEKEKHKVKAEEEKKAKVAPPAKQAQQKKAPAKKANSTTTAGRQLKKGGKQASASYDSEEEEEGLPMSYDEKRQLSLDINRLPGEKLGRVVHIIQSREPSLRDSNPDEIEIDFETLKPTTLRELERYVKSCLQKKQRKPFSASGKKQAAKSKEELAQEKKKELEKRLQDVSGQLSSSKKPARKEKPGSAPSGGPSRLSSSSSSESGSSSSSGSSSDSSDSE

[15] = target: T2, Protein cereblon/Bromodomain-containing protein 4 (Homo sapiens); assay: PROTAC activity at CRBN/BRD4-L in human A549 cells assessed as induction of protein degradation measured after 24 hrs by Western blot analysis; format: cell-based; conditions: dose 3-1000 nM
[16] = target: T1, Protein cereblon/Bromodomain-containing protein 3 (Homo sapiens); assay: PROTAC activity at CRBN/BRD3 in human MCF7 cells assessed as induction of protein degradation at 30 nM by Western blot analysis; format: cell-based; conditions: time 1-3 hrs, TDE = time-dependent effect
[17] = test system: MM1.S; assay: Induction of cell cycle arrest in human MM1.S cells assessed as accumulation of cells at G2 phase at 10 nM incubated for 24 hrs by flow cytometry analysis (reference value: 14.68%); format: functional
[18] = target: T1, Protein cereblon/Bromodomain-containing protein 3 (Homo sapiens); assay: PROTAC activity at CRBN/BRD3 in human MM1.S cells assessed as induction of protein degradation at 30 nM pretreated with lenalidomide for 2 hrs followed by compound addition and measured after 4 hrs by Western blot analysis; format: cell-based
[19] = target: T2, Protein cereblon/Bromodomain-containing protein 4 (Homo sapiens); assay: PROTAC activity at CRBN/BRD4-L in human MCF7 cells assessed as induction of protein degradation at 30 nM by Western blot analysis; format: cell-based; conditions: time 1-3 hrs, TDE = time-dependent effect
[20] = test system: MCF7; assay: Antiproliferative activity against human MCF7 cells assessed as cell growth inhibition measured after 4 days by CCK-8 assay; format: functional, cell-based; conditions: MCF7, 96 h
[21] = target: T2, Protein cereblon/Bromodomain-containing protein 4 (Homo sapiens); assay: PROTAC activity at CRBN/BRD4-L in human MM1.S cells assessed as induction of protein degradation at 2 nM measured after 24 hrs by Western blot analysis; format: cell-based
[22] = target: T3, Protein cereblon/Bromodomain-containing protein 2 (Homo sapiens); assay: PROTAC activity at CRBN/BRD2 in human U-937 cells assessed as induction of protein degradation by Western blot analysis; format: cell-based
[23] = target: T2, Protein cereblon/Bromodomain-containing protein 4 (Homo sapiens); assay: PROTAC activity at CRBN/BRD4-S in human A549 cells assessed as induction of protein degradation at 3 to 1000 nM measured after 24 hrs by Western blot analysis; format: cell-based; conditions: dose 3-1000 nM
[24] = test system: MM1.S; assay: Downregulation of c-Myc protein expression in human MM1.S cells at 0.1 to 30 nM measured after 24 hrs by Western blot analysis; format: functional, cell-based; conditions: dose 0.1-30 nM
[25] = test system: MM1.S; assay: Downregulation of BRD2 expression in human MM1.S cells by proteomic analysis; format: functional, cell-based
[26] = test system: MM1.S; assay: Downregulation of p21 protein expression in human MM1.S cells at 0.1 to 30 nM measured after 24 hrs by Western blot analysis; format: functional, cell-based; conditions: dose 0.1-30 nM
[27] = target: T2, Protein cereblon/Bromodomain-containing protein 4 (Homo sapiens); assay: PROTAC activity at CRBN/BRD4-L in human U-937 cells assessed as induction of protein degradation by Western blot analysis; format: cell-based
[28] = test system: MM1.S; assay: Induction of cell cycle arrest in human MM1.S cells assessed as accumulation of cells at G1 phase at 300 nM incubated for 24 hrs by flow cytometry analysis (reference value: 56.32%); format: functional
[29] = target: T2, Protein cereblon/Bromodomain-containing protein 4 (Homo sapiens); assay: PROTAC activity at CRBN/BRD4-L in human MCF7 cells assessed as induction of protein degradation at 30 nM measured after 3 to 6 hrs by Western blot analysis; format: cell-based; conditions: time 3-6 hrs
[30] = target: T3, Protein cereblon/Bromodomain-containing protein 2 (Homo sapiens); assay: PROTAC activity at CRBN/BRD2 in human MCF7 cells assessed as induction of protein degradation at 30 nM measured around 24 hrs by Western blot analysis; format: cell-based
[31] = test system: MM1.S; assay: Induction of cell cycle arrest in human MM1.S cells assessed as accumulation of cells at G1 phase at 30 nM incubated for 24 hrs by flow cytometry analysis (reference value: 56.32%); format: functional
[32] = target: T1, Protein cereblon/Bromodomain-containing protein 3 (Homo sapiens); assay: PROTAC activity at CRBN/BRD3 in human MCF7 cells assessed as induction of protein degradation at 30 nM measured after 3 to 6 hrs by Western blot analysis; format: cell-based; conditions: time 3-6 hrs
[33] = target: T1, Protein cereblon/Bromodomain-containing protein 3 (Homo sapiens); assay: PROTAC activity at CRBN/BRD3 in human HepG2 cells assessed as induction of protein degradation measured after 24 hrs by Western blot analysis; format: cell-based; conditions: dose 10-3000 nM
[34] = test system: MM1.S; assay: Downregulation of BRD3 expression in human MM1.S cells by proteomic analysis; format: functional, cell-based
[35] = target: T2, Protein cereblon/Bromodomain-containing protein 4 (Homo sapiens); assay: PROTAC activity at CRBN/BRD4-L in human HGC-27 cells assessed as induction of protein degradation measured after 24 hrs by Western blot analysis; format: cell-based; conditions: dose 0.1-30 nM

With `Cc1nnc2n1-c1ccc(-c3ccc(CNCCCCc4cccc5c4CN(C4CCC(=O)NC4=O)C5=O)cc3)cc1C(Nc1ccc(Cl)cc1)CC2` (stereo not given) the Activity [1] was 17.72%, the Activity [2] was “inactive” and the IC50 [3] was 0.0952 µM. The Activity [4] was “inactive”, the Activity [5] was “inactive” and the Activity [6] was “Dose-Dependent Effect”. The Activity [7] was “inactive”, the Activity [8] was 58.49% and the Activity [9] was 15.38%. For the same molecule, the Activity [10] was “inactive”, the Activity [11] was “Active” and the Activity [12] was “Dose-Dependent Effect”. The IC50 [13] was 6.96 µM, the Ki [14] was 0.00245 µM and the Activity [15] was “Dose-Dependent Effect”. The Activity [16] was “Tde”, the Activity [17] was 17.82% and the Activity [18] was “inactive”. For the same molecule, the Activity [19] was “Tde”, the IC50 [20] was 0.23 µM and the Activity [21] was “Active”. The Activity [22] was “Dose-Dependent Effect”, the Activity [23] was “inactive” and the Activity [24] was “Active”. The Activity [25] was “inactive”, the Activity [26] was “Active” and the Activity [27] was “inactive”. The Activity [28] was 68.85%, the Activity [29] was “Active” and the Activity [30] was “Active”. For the same molecule, the Activity [31] was 65.17%, the Activity [32] was “Active” and the Activity [33] was “Dose-Dependent Effect”. For the same molecule, the Activity [34] was “Active” and the Activity [35] was “Dose-Dependent Effect”.
